{"source": "ChEMBL document CHEMBL5705903", "about": "“A DNA Hypomethylation Signature Predicts Antitumor Activity of LSD1 Inhibitors in SCLC” (Cancer Cell, 2015)", "key": {"[1]": {"assay": "Half life in mouse blood at 5 mg/kg, po by HPLC/MS/MS analysis", "type": "ADME, organism-based"}, "[2]": {"assay": "Effect on cleaved PARP level in human NCI-H1417 cells assessed as relative expression at 1000 nM measured after 10 days by Western blot analysis (reference value: 0.19)", "type": "functional", "details": "time 10 day"}, "[3]": {"assay": "Effect on cleaved PARP level in human NCI-H1417 cells assessed as fold change at 10 nM measured after 7 days by Western blot analysis (reference value: 1.00)", "type": "functional", "details": "time 7 day"}, "[4]": {"assay": "Effect on cleaved PARP level in human NCI-H1417 cells assessed as fold change at 1000 nM measured after 14 days by Western blot analysis (reference value: 1.00)", "type": "functional", "details": "time 14 day"}, "[5]": {"assay": "Effect on cleaved PARP level in human NCI-H526 cells assessed as relative expression at 1000 nM measured after 7 days by Western blot analysis (reference value: 0.57)", "type": "functional", "details": "time 7 day"}, "[6]": {"assay": "Effect on cleaved PARP level in human NCI-H526 cells assessed as relative expression at 1000 nM measured after 14 days by Western blot analysis (reference value: 0.66)", "type": "functional", "details": "time 14 day"}, "[7]": {"assay": "Effect on cleaved PARP level in human NCI-H526 cells assessed as fold change at 10 nM measured after 10 days by Western blot analysis (reference value: 1.00)", "type": "functional", "details": "time 10 day"}, "[8]": {"assay": "Effect on cleaved PARP level in human NCI-H524 cells assessed as fold change at 1000 nM measured after 14 days by Western blot analysis (reference value: 1.00)", "type": "functional", "details": "time 14 day"}, "[9]": {"assay": "Effect on cleaved PARP level in human COLO-668 cells assessed as relative expression at 100 nM measured after 7 days by Western blot analysis (reference value: […])", "type": "functional", "details": "time 7 day"}, "[10]": {"assay": "Effect on cleaved PARP level in human COLO-668 cells assessed as relative expression at 10 nM measured after 10 days by Western blot analysis (reference value: 1.07)", "type": "functional", "details": "time 10 day"}, "[11]": {"assay": "Effect on cleaved PARP level in human COLO-668 cells assessed as fold change at 10 nM measured after 14 days by Western blot analysis (reference value: 1.00)", "type": "functional", "details": "time 14 day"}, "[12]": {"assay": "Effect on cleaved PARP level in human NCI-H1694 cells assessed as relative expression at 100 nM measured after 7 days by Western blot analysis (reference value: 0.25)", "type": "functional", "details": "time 7 day"}, "[13]": {"assay": "Effect on cleaved PARP level in human NCI-H1694 cells assessed as relative expression at 100 nM measured after 10 days by Western blot analysis (reference value: 0.31)", "type": "functional", "details": "time 10 day"}, "[14]": {"assay": "Effect on cleaved PARP level in human NCI-H1694 cells assessed as fold change at 100 nM measured after 7 days by Western blot analysis (reference value: 1.00)", "type": "functional", "details": "time 7 day"}, "[15]": {"assay": "Effect on cleaved PARP level in human NCI-H1694 cells assessed as fold change at 1000 nM measured after 14 days by Western blot analysis (reference value: 1.00)", "type": "functional", "details": "time 14 day"}, "[16]": {"assay": "Effect on cleaved PARP level in human NCI-H69 cells assessed as relative expression at 1000 nM measured after 10 days by Western blot analysis (reference value: 0.03)", "type": "functional", "details": "time 10 day"}, "[17]": {"assay": "Effect on cleaved PARP level in human NCI-H69 cells assessed as fold change at 10 nM measured after 10 days by Western blot analysis (reference value: 1.00)", "type": "functional", "details": "time 10 day"}, "[18]": {"assay": "Effect on cleaved PARP level in human NCI-H510 cells assessed as fold change at 100 nM measured after 10 days by Western blot analysis (reference value: 1.00)", "type": "functional, NCI-H510A", "details": "time 10 day"}, "[19]": {"assay": "Effect on cleaved PARP level in human NCI-H510 cells assessed as fold change at 1000 nM measured after 10 days by Western blot analysis (reference value: 1.00)", "type": "functional, NCI-H510A", "details": "time 10 day"}, "[20]": {"assay": "Effect on cleaved PARP level in human NCI-H889 cells assessed as relative expression at 100 nM measured after 7 days by Western blot analysis (reference value: 0.34)", "type": "functional", "details": "time 7 day"}, "[21]": {"assay": "Effect on cleaved PARP level in human NCI-H2171 cells assessed as relative expression at 1000 nM measured after 10 days by Western blot analysis (reference value: 0.02)", "type": "functional", "details": "time 10 day"}, "[22]": {"assay": "Effect on cleaved PARP level in human NCI-H2171 cells assessed as fold change at 100 nM measured after 7 days by Western blot analysis (reference value: 1.00)", "type": "functional", "details": "time 7 day"}, "[23]": {"assay": "Effect on cleaved PARP level in human NCI-H2171 cells assessed as fold change at 100 nM measured after 14 days by Western blot analysis (reference value: 1.00)", "type": "functional", "details": "time 14 day"}, "[24]": {"assay": "Effect on cleaved PARP level in human NCI-H146 cells assessed as relative expression at 100 nM measured after 10 days by Western blot analysis (reference value: 0.27)", "type": "functional", "details": "time 10 day"}, "[25]": {"assay": "Effect on cleaved PARP level in human NCI-H146 cells assessed as relative expression at 1000 nM measured after 14 days by Western blot analysis (reference value: 2.42)", "type": "functional", "details": "time 14 day"}, "[26]": {"assay": "Toxicity in rat assessed as myelofibrosis measured for 28 days", "details": "in vivo, 672 h, time 28 day"}, "[27]": {"assay": "Toxicity in rat assessed as effect on hemodynamics measured for 28 days", "details": "in vivo, 672 h, time 28 day"}, "[28]": {"assay": "Toxicity in dog assessed as congestion in lymphoid organs measured for 28 days", "design": "species or system Canis lupus familiaris", "details": "in vivo, 672 h, time 28 day"}, "[29]": {"assay": "Toxicity in dog assessed as effect on ECG measured for 28 days", "design": "species or system Canis lupus familiaris", "details": "in vivo, 672 h, time 28 day"}, "NCI-H526 [30]": {"system": "NCI-H526", "assay": "Upregulation of LSD1 signal enrichment at super enhancers in human NCI-H526 cells at 1 uM", "type": "functional, cell-based"}, "NCI-H526 [31]": {"system": "NCI-H526", "assay": "In vivo inhibition of LSD1 in human NCI-H526 cells xenografted in nude mouse assessed as change in TSPAN8 gene expression measured after 24 hrs post single administration by qRT-PCR analysis", "type": "functional, organism-based", "details": "dose 0.06-135 mg/kg"}, "NCI-H526 [32]": {"system": "NCI-H526", "assay": "In vivo inhibition of LSD1 in human NCI-H526 cells xenografted in nude mouse assessed as change in KIAA1644 gene expression measured after 24 hrs post single administration by qRT-PCR analysis", "type": "functional, organism-based", "details": "dose 0.06-135 mg/kg"}, "NCI-H526 [33]": {"system": "NCI-H526", "assay": "In vivo inhibition of LSD1 in human NCI-H526 cells xenografted in nude mouse assessed as change in TOX3 gene expression measured after 24 hrs post single administration by qRT-PCR analysis", "type": "functional, organism-based", "details": "dose 0.06-135 mg/kg"}, "NCI-H1417 [34]": {"system": "NCI-H1417", "assay": "In vivo inhibition of LSD1 in human NCI-H1417 cells xenografted in nude mouse assessed as change in ZEB1 gene expression measured after 24 hrs post single administration by qRT-PCR analysis", "type": "functional, organism-based", "details": "dose 0.02-135 mg/kg"}, "NCI-H1417 [35]": {"system": "NCI-H1417", "assay": "In vivo inhibition of LSD1 in human NCI-H1417 cells xenografted in nude mouse assessed as change in SAMD5 gene expression measured after 24 hrs post single administration by qRT-PCR analysis", "type": "functional, organism-based", "details": "dose 0.02-135 mg/kg"}, "[36]": {"assay": "Antitumor activity against human PDX L44 cells xenografted in mouse assessed as tumor growth inhibition at 1.5 mg/kg administered daily measured for 30 days relative to control", "type": "functional", "details": "PDX LX44, 720 h, time 30 day, read-out: TGI"}, "[37]": {"assay": "Inhibition of Cav1.2 (unknown origin)", "design": "species or system Homo sapiens"}}, "note": "Calls of active or inactive are those of the source. The rule behind the calls is not given here."}
{"compound": "O=C(O)c1ccc(CN2CCC(CN[C@@H]3C[C@H]3c3ccccc3)CC2)cc1", "note": "[GSK2879552]", "values": [{"measurement": "half-life", "setting": "[1]", "value": 1.9, "unit": "h"}, {"measurement": "Activity", "setting": "[2]", "value": 0.4}, {"measurement": "fold change (FC)", "setting": "[3]", "value": 1.53}, {"measurement": "fold change (FC)", "setting": "[4]", "value": 1.1}, {"measurement": "Activity", "setting": "[5]", "value": 0.74}, {"measurement": "Activity", "setting": "[6]", "value": 0.9}, {"measurement": "fold change (FC)", "setting": "[7]", "value": 0.57}, {"measurement": "fold change (FC)", "setting": "[8]", "value": 0.77}, {"measurement": "Activity", "setting": "[9]", "value": 1.52}, {"measurement": "Activity", "setting": "[10]", "value": 0.81}, {"measurement": "fold change (FC)", "setting": "[11]", "value": 0.41}, {"measurement": "Activity", "setting": "[12]", "value": 0.28}, {"measurement": "Activity", "setting": "[13]", "value": 0.23}, {"measurement": "fold change (FC)", "setting": "[14]", "value": 1.11}, {"measurement": "fold change (FC)", "setting": "[15]", "value": 0.84}, {"measurement": "Activity", "setting": "[16]", "value": 0.09}, {"measurement": "fold change (FC)", "setting": "[17]", "value": 1.74}, {"measurement": "fold change (FC)", "setting": "[18]", "value": 9.72}, {"measurement": "fold change (FC)", "setting": "[19]", "value": 12.67}, {"measurement": "Activity", "setting": "[20]", "value": 0.43}, {"measurement": "Activity", "setting": "[21]", "value": 0.02}, {"measurement": "fold change (FC)", "setting": "[22]", "value": 1.71}, {"measurement": "fold change (FC)", "setting": "[23]", "value": 1.8}, {"measurement": "Activity", "setting": "[24]", "value": 0.25}, {"measurement": "Activity", "setting": "[25]", "value": 1.45}, {"measurement": "Activity", "setting": "[26]", "value": "Toxic"}, {"measurement": "Activity", "setting": "[27]", "value": "Toxic"}, {"measurement": "Activity", "setting": "[28]", "value": "Toxic"}, {"measurement": "Activity", "setting": "[29]", "value": "Toxic"}, {"measurement": "Activity", "setting": "NCI-H526 [30]", "value": "Active"}, {"measurement": "inhibition", "setting": "NCI-H526 [31]", "value": "Dose-Dependent Effect"}, {"measurement": "inhibition", "setting": "NCI-H526 [32]", "value": "Dose-Dependent Effect"}, {"measurement": "inhibition", "setting": "NCI-H526 [33]", "value": "Dose-Dependent Effect"}, {"measurement": "inhibition", "setting": "NCI-H1417 [34]", "value": "Dose-Dependent Effect"}, {"measurement": "inhibition", "setting": "NCI-H1417 [35]", "value": "Dose-Dependent Effect"}, {"measurement": "inhibition in vivo at 1.5 mg/kg", "setting": "[36]", "value": 69, "unit": "%"}]}
{"compound": "c1ccc([C@@H]2C[C@H]2NC2CCNCC2)cc1", "values": [{"measurement": "IC50", "setting": "[37]", "value": "> 100", "unit": "µM"}]}
